Data reported in ChEMBL document CHEMBL2311536 (J Med Chem, 2013).
Calls of active or inactive are those of the source. No cut-off for these calls is given here.

Columns and labels:
[1] = molecular target: T1, Lysine-specific demethylase 2A (Homo sapiens) (UniProt Q9Y2K7); test: Displacement of 2OG from FBXL11 (1 to 517) (unknown origin) expressed in Escherichia coli at 800 uM
T1 sequence (whole entry): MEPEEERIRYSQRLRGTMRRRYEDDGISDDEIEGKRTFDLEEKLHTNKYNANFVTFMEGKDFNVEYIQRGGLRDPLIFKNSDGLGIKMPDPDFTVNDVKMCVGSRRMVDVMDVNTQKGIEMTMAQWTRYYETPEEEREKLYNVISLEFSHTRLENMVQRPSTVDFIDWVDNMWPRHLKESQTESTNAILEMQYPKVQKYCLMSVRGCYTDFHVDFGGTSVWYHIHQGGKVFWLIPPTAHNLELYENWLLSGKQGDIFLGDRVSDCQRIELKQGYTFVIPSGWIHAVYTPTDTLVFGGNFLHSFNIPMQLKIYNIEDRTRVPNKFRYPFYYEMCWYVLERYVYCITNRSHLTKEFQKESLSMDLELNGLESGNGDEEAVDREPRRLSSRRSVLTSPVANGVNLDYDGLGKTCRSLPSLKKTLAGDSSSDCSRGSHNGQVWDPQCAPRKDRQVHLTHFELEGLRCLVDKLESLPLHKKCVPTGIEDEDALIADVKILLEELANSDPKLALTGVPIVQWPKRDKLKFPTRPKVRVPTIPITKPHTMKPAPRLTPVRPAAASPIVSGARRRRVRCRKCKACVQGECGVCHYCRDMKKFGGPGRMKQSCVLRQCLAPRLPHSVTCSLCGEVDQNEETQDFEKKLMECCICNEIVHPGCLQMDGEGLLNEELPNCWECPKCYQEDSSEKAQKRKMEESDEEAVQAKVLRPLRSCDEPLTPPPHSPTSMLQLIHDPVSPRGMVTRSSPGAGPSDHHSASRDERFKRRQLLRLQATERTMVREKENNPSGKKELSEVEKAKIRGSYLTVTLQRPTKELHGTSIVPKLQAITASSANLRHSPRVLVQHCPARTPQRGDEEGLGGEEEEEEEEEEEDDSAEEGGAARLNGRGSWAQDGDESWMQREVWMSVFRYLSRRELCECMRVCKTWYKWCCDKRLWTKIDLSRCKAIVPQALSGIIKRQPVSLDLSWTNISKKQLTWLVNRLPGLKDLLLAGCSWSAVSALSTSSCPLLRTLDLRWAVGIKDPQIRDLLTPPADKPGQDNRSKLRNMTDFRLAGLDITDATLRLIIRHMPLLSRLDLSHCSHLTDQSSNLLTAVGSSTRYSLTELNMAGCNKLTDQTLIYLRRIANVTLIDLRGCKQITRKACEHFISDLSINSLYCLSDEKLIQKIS

[2] = (§1) Displacement of 2OG from FIH (unknown origin) expressed in Escherichia coli at 400 uM; settings: Homo sapiens
[3] = Inhibition of human FIH catalytic domain Mn2 expressed in Escherichia coli by NMR spectroscopic analysis
[4] = Binding affinity to human FIH catalytic domain Mn2 expressed in Escherichia coli by NMR spectroscopic analysis
Egl nine homolog 1 [5] = molecular target: T2, Egl nine homolog 1 (Homo sapiens, UniProt Q9GZT9); test: Displacement of 2OG from catalytic domain of PHD2 (181 to 426) (unknown origin) Zn2 expressed in Escherichia coli at 150 uM
Target sequence in this assay (Q9GZT9 2-426 limits assumed): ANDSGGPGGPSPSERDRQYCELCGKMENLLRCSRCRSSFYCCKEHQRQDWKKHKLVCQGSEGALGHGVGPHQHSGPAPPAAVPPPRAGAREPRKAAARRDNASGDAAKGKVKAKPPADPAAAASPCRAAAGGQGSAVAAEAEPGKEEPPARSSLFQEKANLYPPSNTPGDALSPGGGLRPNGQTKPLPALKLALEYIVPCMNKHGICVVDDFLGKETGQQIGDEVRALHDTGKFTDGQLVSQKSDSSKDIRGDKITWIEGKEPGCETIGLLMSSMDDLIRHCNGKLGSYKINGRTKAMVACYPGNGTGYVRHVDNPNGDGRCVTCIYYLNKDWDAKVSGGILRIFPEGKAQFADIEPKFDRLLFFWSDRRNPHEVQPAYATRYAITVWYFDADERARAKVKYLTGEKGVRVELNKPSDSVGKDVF

Egl nine homolog 1 [6] = molecular target: T2, Egl nine homolog 1; test: Binding affinity to human PHD2 catalytic domain (181 to 426) Mn2 expressed in Escherichia coli by NMR spectroscopic analysis
Target sequence in this assay (Q9GZT9 whole entry, the tested form may be a part): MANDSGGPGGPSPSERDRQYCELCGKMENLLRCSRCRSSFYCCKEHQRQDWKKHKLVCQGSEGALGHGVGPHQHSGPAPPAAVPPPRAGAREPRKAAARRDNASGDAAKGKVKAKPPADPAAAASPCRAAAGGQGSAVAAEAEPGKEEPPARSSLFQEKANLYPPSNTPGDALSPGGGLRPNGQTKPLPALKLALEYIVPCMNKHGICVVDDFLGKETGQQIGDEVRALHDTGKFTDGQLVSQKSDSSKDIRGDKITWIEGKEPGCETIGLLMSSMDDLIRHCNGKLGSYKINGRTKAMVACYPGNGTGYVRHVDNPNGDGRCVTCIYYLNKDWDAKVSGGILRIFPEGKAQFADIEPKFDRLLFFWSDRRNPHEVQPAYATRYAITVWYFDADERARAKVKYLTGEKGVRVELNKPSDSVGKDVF

Egl nine homolog 1 [7] = molecular target: T2, Egl nine homolog 1; test: Inhibition of human PHD2 catalytic domain (181 to 426) Mn2 expressed in Escherichia coli by NMR spectroscopic analysis
Target sequence in this assay (Q9GZT9 whole entry, the tested form may be a part): as above

Homo sapiens = species on record: Homo sapiens; test: as §1
Egl nine homolog 1 [8] = molecular target: T2, Egl nine homolog 1; test: Inhibition of PHD2 (unknown origin)
Target sequence in this assay (Q9GZT9 whole entry, the tested form may be a part): as above

Egl nine homolog 1 [9] = molecular target: T2, Egl nine homolog 1; test: Displacement of 2OG from catalytic domain of PHD2 (181 to 426) (unknown origin) Zn2 expressed in Escherichia coli at 400 uM
Target sequence in this assay (Q9GZT9 2-426 limits assumed): as the sequence (Q9GZT9 2-426 limits assumed) above

Egl nine homolog 1 [10] = molecular target: T2, Egl nine homolog 1; test: Displacement of [13C]-2OG from catalytic domain of PHD2 (181 to 426) (unknown origin) expressed in Escherichia coli
Target sequence in this assay (Q9GZT9 whole entry, the tested form may be a part): as the sequence (Q9GZT9 whole entry, the tested form may be a part) above

SMILES: O=C(O)CNC(=O)c1nc(Cl)c2ccccc2c1O
- inhibition [1]: inactive
- inhibition [2]: 55%
- IC50 [3]: > 25 µM
- Kd [4]: 140 µM

SMILES: O=C(O)c1ccc(O)c(O)c1
- inhibition (Egl nine homolog 1 [5]): inactive

SMILES: O=C(O)/C=C/C(=O)O [FUMARIC ACID]
- Kd (Egl nine homolog 1 [6]): 200 µM
- IC50 (Egl nine homolog 1 [7]): 220 µM

SMILES: O=C(O)/C=C/c1ccc(O)c(O)c1
- inhibition (Egl nine homolog 1 [5]): inactive

SMILES: O=C(O)CC(O)(CC(=O)O)C(=O)O
- inhibition (Homo sapiens): inactive

SMILES: O=C(O)c1ccnc(C(=O)O)c1
- inhibition [1]: 70%

SMILES: CCOC(=O)c1ccc(O)c(O)c1
- inhibition (Egl nine homolog 1 [5]): inactive

SMILES: O=C(O)CNC(=O)C(=O)O [N-OXALYLGLYCINE]
- inhibition [1]: 30%
- inhibition [2]: 85%
- IC50 [3]: 50 µM
- Kd [4]: 4 µM

SMILES: O=C(O)CC(C(=O)O)C(O)C(=O)O (stereo unspecified) [ISOCITRATE]
- inhibition (Homo sapiens): inactive
- IC50 (Egl nine homolog 1 [8]): > 10000 µM

SMILES: O=C(O)CNC(=O)c1ccc(B(O)O)cn1
- inhibition (Egl nine homolog 1 [9]): 50%

SMILES: O=C(O)Cc1cs/c(=N\C(=O)CS(=O)(=O)Cc2ccc3ccccc3c2)n1O
- inhibition [1]: 90%
- Kd (Egl nine homolog 1 [10]): 0.11 µM
- Kd (Egl nine homolog 1 [6]): 0.1 µM
- IC50 (Egl nine homolog 1 [7]): 0.02 µM

SMILES: CC(O)C(C)O (stereo unspecified)
- inhibition (Egl nine homolog 1 [5]): inactive

SMILES: O=C(O)c1ccc(O)c2ncccc12
- inhibition [1]: 65%
- inhibition [2]: 75%
- IC50 [3]: 20 µM
- Kd [4]: 30 µM

SMILES: Oc1ccccc1O
- inhibition (Egl nine homolog 1 [5]): inactive

SMILES: O=C(c1ccccc1)c1ccc(O)c(O)c1
- inhibition (Egl nine homolog 1 [5]): inactive

SMILES: O=C(O)CC(O)C(=O)O (stereo unspecified)
- inhibition (Homo sapiens): inactive

SMILES: O=C(O)CCC(=O)O
- inhibition (Homo sapiens): inactive
